# Results reported in patent US20240084044A1, “Heteromultivalent Nucleic Acid Scaffolds and Uses Thereof” (George Mason University, priority 2022, published 2024).
# Bridges are numbered along the chain shown (N, C = ends). Roman numbers before positions name the chains, in order.
# Tested on: IL-33 signaling (HEK-Blue IL-33 cells)
# Assay: SEAP reporter assay in HEK-Blue IL-33 reporter cells
# Format: cell-based, human
# Method: HEK-Blue® IL-33 (Invivogen, Cat. #hkb-hil33) and IL-1β cells (Invivogen, Cat #hkb-il1bv2) were cultured in T25 and T75 flasks (NUNC, Cat. #156367 and #156499) in DMEM media supplemented with L-glutamine (Gibco, Cat. #11995-065), 10% Fetal Bovine Serum (Gibco, Cat. #10437-028), 1% Penicillin/Streptomycin (Gibco, Cat. #15140-148), and 0.5% Normacin® (Invivogen, Cat. #ant-hr-1). IL-33 cell growth media also included 1 mL of 250× Selectin Cocktail® (Invivogen, Cat. #hb-sel) and IL-1β cell growth media included 100 μg/mL of Zeocin® (Cat #ant-zn-05). Cells were maintained at 37° C. with humidity and 5% CO2 and were passaged upon reaching 80-85% confluency. […]
# IL-33 and IL-1β signaling activation was assessed based on the expression of a SEAP reporter gene. […] Pellet was resuspended in 5 mL test medium (DMEM, 10% heat inactivated FBS, and 1% P/S), cells counted, and concentration adjusted to 2.8×10^5 cell/mL. […] After incubation, SEAP reporter gene phosphatase activity was measured by adding 20 μL of supernatant from each well to 180 μL of QuantiBLUE substrate (Invivogen, Cat #rep-qbs) and incubated an additional 30 min at 37° C. Colorimetric absorbance was measured at 620 nm. […]
# MSTOP bioactivity was determined in a reporter gene cell model. […] After six hours, IL-33 signaling was quantified by absorbance at 620 nm, based on the metabolism of QUANTI-Blue substrate by expressed SEAP secreted into the media.
substance,measurement,setting,value
"MSTOP: 3WJ DNA scaffold whose three DBCO staple strands carry cyclized azidolysine IL-1RAcP hotspot peptides; decoy for IL-33/ST2 (peptide 1 Ac-CKEYGIQRITC-NH2; peptide 2 Ac-AKVGSPKNAVPPC-NH2; peptide 3 Ac-CKGEVAKAAKVKC-NH2; disulfide I:1-I:11, III:1-III:13; thioether II:1-II:13; not fully specified (some residues); also: three peptides held on a 3-way junction DNA scaffold via DBCO staple strands)",reduction in IL-33 induced SEAP expression,"1 μM, 100 pg/mL IL-33, 6 h",~40%
same,inhibition of IL-33 cells compared to IL-1β cells,MSTOP dose curve 10 μM to 10 nM,Significant inhibition
